Source: patent publication US20240299393A1, “SMALL MOLECULE DISRUPTORS OF PROTEIN INTERACTIONS IN HISTONE DEACETYLASE COMPLEXES” (Dana-Farber Cancer Institute, Inc., priority 2021, published 2024)
“Also recorded” adds a separate entry of the source.

Key:
Sin3-Ume6 = target: T1, Sin3-Ume6 (Saccharomyces cerevisiae, UniProt P22579); assay: GPCA binary PPI inhibition in HEK293T cells, Sin3-Ume6; type: cell-based, human HEK293T cells
T1 construct: ORFs corresponding to full-length subunits of the Rpd3L HDAC complex were PCR-amplified from yeast genomic DNA; expressed in transfected cells; host or cells: HEK293T
Protocol: GPCA (N1-N2 version) was implemented as reported in [Choi et al 2019]. HEK293T cells were seeded at 6×10^4 cells per well in 96-well, flat-bottom, cell culture microplates (Greiner Bio-One, #655083), and cultured in Dulbecco's modified Eagle's medium (DMEM) supplemented with 10% fetal calf serum at 37° C. and 5% CO2. Twenty-four hours later, cells were transfected with 100 ng of each GPCA plasmid (GPCA-N1 and GPCA-N2) using linear polyethylenimine (PEI) to co-express the protein pairs fused with complementary luciferase fragments, Luc1 and Luc2. The DNA/PEI ratio used for transfection was 1:3 (mass:mass). […] Luminescence was measured by auto-injecting 50 μL Renilla luciferase substrate (Renilla Luciferase Assay system, catalog No. E2820, Promega) per well and integrating light output for 4 s using a TriStar luminometer (Berthold).
The ability of compounds to inhibit binary PPIs in the Sin3/Rpd3L HDAC complex was tested by GPCA in a high-throughput screening format. […] The luminescence signal for each PPI was measured by averaging the different DMSO replicates, and calculating the standard deviation of DMSO values for each interaction. […] For each interaction, a particular compound was scored as a PPI inhibitor when it decreased its luminescence signal by at least three standard deviations compared to the corresponding averaged DMSO value. […]

[1] = Tolerability of chronic treatment in mice; type: in vivo; details: 50 mg/kg I.P. daily for 10 days
Protocol: For the pilot RT-qPCR experiment, in addition to the vehicle condition (ethanol 100%/kolliphor/saline 0.9% in a proportion of 1:1:14.4; for the 50 mg/kg dose, 14 μL NaOH 1M were also added), three doses (mg/kg) of E6R were tested: 5, 15, and 50, with 4 (vehicle) or 3 (E6R) animals per group. A dose of 50 mg/kg was picked to conduct further experiments. For the RNA-Seq experiment, E6R was dissolved in a vehicle solution containing saline 55% v/v, DMSO 34% v/v, ethanol 5% v/v, kolliphor EL (Sigma-Aldrich, MO, USA) 5% v/v, NaOH 1M 1% v/v. The vehicle group received the same solution. Animals were injected daily by intraperitoneal (I.P.) injection with 5 μL/g of the solution (50 mg/kg of the drug or vehicle) at 11 am for 10 days. Animal wellness was verified by daily visual inspection and weighing. […] On the 11th day, animals were sacrificed by bleeding via heart puncture under carbon dioxide anesthesia. The brains were quickly removed and the bilateral frontal cortex (bregma 1.90 to 1.40 mm) was dissected followed by total RNA extraction. The spleens were also collected in the pilot RT-qPCR experiments.

[2] = target: Sc Sin3 PAH2-Ume6 SID (TAMRA-labeled) interaction (Saccharomyces cerevisiae, UniProt P22579); assay: biochemical
Sc Sin3 PAH2-Ume6 SID (TAMRA-labeled) interaction, sequence (P22579 402-473): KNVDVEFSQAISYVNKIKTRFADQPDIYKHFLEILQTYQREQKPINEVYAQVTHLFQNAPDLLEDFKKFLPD
Protocol: Symbols represent individual data points (A) or means with SEM, and lines fitted curves.
IC50 determination for unlabeled Ume6 SID, E6, E6R and E6S: the concentrations of FITC-Ume6 SID (30 nM), and GST-Sin3 PAH2 (3 μM) were fixed and the compounds were titrated with an HP D300 (Hewlett-Packard, CA) to the assay plate.

T1 sequence (P22579 whole entry): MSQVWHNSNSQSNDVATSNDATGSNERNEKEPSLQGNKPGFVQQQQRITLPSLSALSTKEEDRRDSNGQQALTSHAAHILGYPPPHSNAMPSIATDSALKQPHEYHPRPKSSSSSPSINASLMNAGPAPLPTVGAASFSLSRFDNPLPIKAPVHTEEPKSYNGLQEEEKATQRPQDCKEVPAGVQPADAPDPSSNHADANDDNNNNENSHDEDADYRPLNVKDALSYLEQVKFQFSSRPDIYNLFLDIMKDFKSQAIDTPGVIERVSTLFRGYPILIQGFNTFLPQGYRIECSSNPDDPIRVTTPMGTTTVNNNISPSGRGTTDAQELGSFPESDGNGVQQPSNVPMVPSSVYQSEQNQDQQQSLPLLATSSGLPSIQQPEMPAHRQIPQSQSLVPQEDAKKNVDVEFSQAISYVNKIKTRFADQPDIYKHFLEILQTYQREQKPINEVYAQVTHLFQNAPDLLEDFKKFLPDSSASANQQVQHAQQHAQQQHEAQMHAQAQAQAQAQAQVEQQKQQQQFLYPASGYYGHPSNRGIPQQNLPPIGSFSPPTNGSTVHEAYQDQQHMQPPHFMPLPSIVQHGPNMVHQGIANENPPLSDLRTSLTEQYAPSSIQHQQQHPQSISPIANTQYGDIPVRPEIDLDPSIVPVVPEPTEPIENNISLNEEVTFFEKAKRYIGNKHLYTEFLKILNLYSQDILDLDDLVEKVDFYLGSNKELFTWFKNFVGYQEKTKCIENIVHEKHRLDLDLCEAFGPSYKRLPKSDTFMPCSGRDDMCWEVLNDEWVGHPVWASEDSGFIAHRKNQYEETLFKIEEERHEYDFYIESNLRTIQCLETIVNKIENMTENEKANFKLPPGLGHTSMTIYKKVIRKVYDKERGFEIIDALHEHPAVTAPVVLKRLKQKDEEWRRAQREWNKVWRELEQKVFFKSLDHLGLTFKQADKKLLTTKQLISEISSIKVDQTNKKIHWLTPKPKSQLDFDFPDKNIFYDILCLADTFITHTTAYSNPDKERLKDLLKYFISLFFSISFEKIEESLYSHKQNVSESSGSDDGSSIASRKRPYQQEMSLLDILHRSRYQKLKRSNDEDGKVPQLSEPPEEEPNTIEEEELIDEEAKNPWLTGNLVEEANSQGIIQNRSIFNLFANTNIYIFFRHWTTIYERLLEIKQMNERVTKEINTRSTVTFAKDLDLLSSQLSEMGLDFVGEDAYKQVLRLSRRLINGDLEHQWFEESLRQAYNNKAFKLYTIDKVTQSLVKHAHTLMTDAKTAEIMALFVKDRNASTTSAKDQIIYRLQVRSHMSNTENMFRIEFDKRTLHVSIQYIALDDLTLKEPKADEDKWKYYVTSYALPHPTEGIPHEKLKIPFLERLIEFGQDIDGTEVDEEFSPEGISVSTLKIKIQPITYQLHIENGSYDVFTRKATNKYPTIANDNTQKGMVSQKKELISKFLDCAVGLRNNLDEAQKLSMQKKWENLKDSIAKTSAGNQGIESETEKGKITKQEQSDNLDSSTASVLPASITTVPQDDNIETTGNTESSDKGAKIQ

Row | SMILES | inhibition of Sin3-Ume6 PPI (fold change over DMSO) (Sin3-Ume6; 10 μM, 1 h) [fold] | inhibition of Sin3-Ume6 PPI (Sin3-Ume6; GPCA) | tolerability, behavior and body mass [1] | IC50 [2] [µM]
1 | CC(NC(=O)c1c(O)n2ccccc2nc1=O)c1ccccc1 (racemic) [E6] | ~2.5 | selectively inhibit | – | –
2 | C[C@@H](NC(=O)c1c(O)n2ccccc2nc1=O)c1ccccc1 [E6R, 4-hydroxy-2-oxo-N—((R)-1-phenylethyl)-3,4-dihydro-2H-pyrido[, 2-a]pyrimidine-3-carboxamide] | – | – | No abnormal behavior or significant body mass decrease (>5%); also recorded: well-tolerated | 63.7
